In patent US10633383B2, “Compounds for the treatment, alleviation or prevention of disorders associated with Tau aggregates” (AC Immune SA, priority 2018, dated 2020):

What was measured:
[1] = molecular target: T1, recombinant full-length (fl)Tau (human Tau 2N4R) aggregates (Homo sapiens, UniProt P10636); assay: Full-length Tau (flTau) disaggregation assay by Thioflavin T (ThT); assay type: biochemical; conditions: 2 μM flTau aggregates, 30 minutes at RT, ThT fluorescence
T1 construct: 35 μM of recombinant full-length (fl)Tau in PBS were aggregated; made in house; host or cells: bacteria
Procedure: Full-Length Tau (flTau) Disaggregation Assay by Thioflavin T (ThT)
(§1) The longest isoform of human Tau (2N4R; 441 amino acids) was expressed in bacteria and purified. For the Tau disaggregation assay by ThT, 35 μM of recombinant full-length (fl)Tau in PBS were aggregated for 24 hours at 37° C. in presence of 50 μM of heparin (Sigma-Aldrich) and 10 mM of DTT (Sigma-Aldrich) under shaking at 750 RPM. Compounds were dissolved in anhydrous dimethyl sulfoxide (DMSO, Sigma-Aldrich) to reach a concentration of 10 mM. flTau aggregates and serial dilutions of compounds were mixed together in PBS (volume 50 μL) to a final concentration of 2 μM of flTau aggregates and from 160 to 0.04 μM of compounds. The mixture was incubated for 30 minutes at room temperature (RT), then 40 μL of this mixture were transferred into a black 384-well plate assay (Perkin-Elmer) and mixed with 10 μL of 100 μM ThT in 250 mM glycine (both from Sigma-Aldrich) in PBS. Fluorescence (relative fluorescence units; RFU) was measured in monoplicate or duplicate on a Tecan reader (excitation: 440 nm; emission: 485 nm). Percentage of flTau disaggregation was then calculated and the half maximal effective concentration (EC50) was determined using GraphPad Prism version 5 (GraphPad Software) assuming a one-binding site fitting model.

[2] = test system: human neuroblastoma cell line overexpressing the full-length form of human Tau carrying the P301L mutation; assay: Reduction of intracellular Tau aggregation (AlphaLISA); assay type: cell-based; conditions: compound at 5 μM, 24 h, aggregated Tau normalized to total Tau, relative to DMSO-treated cells
Procedure: Reduction of Intracellular Tau Aggregation
A human neuroblastoma cell line overexpressing the full-length form of human Tau carrying the P301L mutation was cultured in complete medium [DMEM-F12 4.5 g/L Glutamax (Invitrogen), 15% FBS (Biochrom), 1% Peni/Strep (Invitrogen) supplemented with 2.5 μg/ml of G418 (Sigma-Aldrich) selection antibiotic]. The day before the experiment 5×10^5 cells/well were plated in a 6 well plate in 3 mL of complete medium. The next day, cells were incubated with DMSO or a compound of the present invention at a 5 μM for additional 24 h at 37° C. After incubation, cells were trypsinized, resuspended in 100 μl of homogenization buffer [25 mM Tris-HCl pH 7.4, 150 mM NaCl, 1 mM EDTA, 1 mM EGTA containing phosphatase inhibitors (30 mM NaF, 0.2 mM Na3VO4, 1 nM Okadaic acid, 1 mM PMSF, 5 mM Na4P2O7) and protease inhibitor cocktail (Complete™, Roche)], and then physically lysed with three rapid cycles of freezing and thawing. Samples were then directly tested in the AlphaLISA assay. Phosphorylated, aggregated, and total Tau were quantified by AlphaLisa using the following antibody pairs: • HT7-Acceptor beads+biotin (BT)-Tau13-Donor beads: Total Tau • HT7-Acceptor beads+biotin (BT)-HT7-Donor beads: Aggregated human Tau
The Tau13 (Abcam) was biotinylated using EZ-Link® NHS-PEO Solid Phase biotinylation kit (Thermo Scientific), while the HT7-biotin was from a commercial source (Thermo Scientific).
For each antibody pairs the concentration of acceptor beads and biotinylated antibodies was optimized. All samples were first tested in a dilution series in PBS in order to identify the linear range and optimal dilution for each sample and assay. For the final protocol, the following reagents were added in a 384-well white OptiPlate (PerkinElmer): • 5 μL of test diluted sample • 20 μL of the mixture biotin-mAb acceptor beads at the following final concentrations: • HT7-BT at 1.25 nM in combination with HT7-Acc beads at 10 μg/ml • Tau13-BT at 5 nM in combination with HT7-Acc beads at 2.5 μg/ml
After incubation of this mixture at room temperature for 1 h, 25 μL of Streptavidin Donor beads (Perkin Elmer) at 25 μg/mL were added in the dark. Plates were analyzed after 30 min incubation using the EnSpire Alpha instrument and EnSpire Workstation version 3.00. Data for aggregated Tau were normalized to total Tau and then expressed as percentage of the DMSO-treated cells.

[3] = molecular target: T2, Tau K18 fragment (amino acids 244 to 372 of human Tau441) aggregates (Homo sapiens, UniProt P10636); assay: Tau K18 disaggregation assay by ThT; assay type: biochemical; conditions: 2 μM K18 aggregates, 30 minutes at RT, ThT fluorescence
T2 construct: encompassing amino acids 244 to 372 of the longest isoform (2N4R) of human Tau441; host or cells: bacteria
Procedure: Tau K18 Disaggregation Assay by ThT
as §1, with “Compounds” for “The longest isoform of human Tau (2N4R; 441 amino acids) was expressed in bacteria and purified. For the Tau disaggregation assay by ThT, 35 μM of recombinant full-length (fl)Tau in PBS were aggregated for 24 hours at 37° C. in presence of 50 μM of heparin (Sigma-Aldrich) and 10 mM of DTT (Sigma-Aldrich) under shaking at 750 RPM. Compounds”, “K18” for “flTau”, “and” for “and the”

T2 sequence (P10636 561-689): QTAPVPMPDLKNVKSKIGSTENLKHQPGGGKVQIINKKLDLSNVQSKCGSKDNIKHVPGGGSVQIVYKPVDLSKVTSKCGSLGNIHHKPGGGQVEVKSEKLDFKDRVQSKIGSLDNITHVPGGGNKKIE
T1 sequence (P10636 1-441 isoform P10636-8): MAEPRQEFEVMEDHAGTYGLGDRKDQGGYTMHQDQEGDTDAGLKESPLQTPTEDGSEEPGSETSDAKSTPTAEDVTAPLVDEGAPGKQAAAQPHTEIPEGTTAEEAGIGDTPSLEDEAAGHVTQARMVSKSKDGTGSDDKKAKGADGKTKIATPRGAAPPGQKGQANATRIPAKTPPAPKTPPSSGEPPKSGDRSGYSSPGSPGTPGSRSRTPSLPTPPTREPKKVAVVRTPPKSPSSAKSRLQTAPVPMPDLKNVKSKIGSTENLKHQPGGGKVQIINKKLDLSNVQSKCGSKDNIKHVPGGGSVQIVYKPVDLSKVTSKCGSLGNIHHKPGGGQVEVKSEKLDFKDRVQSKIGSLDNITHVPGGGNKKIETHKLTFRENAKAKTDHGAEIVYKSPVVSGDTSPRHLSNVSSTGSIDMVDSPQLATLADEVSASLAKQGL

Structure (SMILES) | EC50 [1] | EC50 [3] | inhibition at 5 µM [2]
COc1ccc2[nH]c3c(c2c1)CN(c1ccc2nc(N4CCOCC4)sc2c1)CC3 [Example 19] | < 10 µM |  | 25 to 50%
Fc1ccc2[nH]c3c(c2c1)CN(c1ccc2nc(N4CCOCC4)sc2c1)CC3 [Example 6] |  | < 10 µM | 25 to 50%
CN(C)c1nc2ccc(N3CCc4[nH]c5cc(F)ccc5c4C3)cc2o1 [Example 55] | < 10 µM |  | 10 to 25%
Fc1cccc2[nH]c3c(c12)CN(c1ccc2sc(N4CCOCC4)nc2c1)CC3 [Example 52] | < 10 µM |  | 10 to 25%

Continued, in another order:

EC50 [1] | EC50 [3] | Structure (SMILES) | inhibition at 5 µM [2]
< 10 µM | < 10 µM | Fc1ccc2c3c([nH]c2c1)CCN(c1ccc2oc(N4CCOCC4)nc2c1)C3 [Example 45, 5-(7-fluoro-1,3,4,5-tetrahydropyrido[4,3-b]indol-2-yl)-2-morpholino-1,3-benzoxazole] | > 50%
 | < 10 µM | Fc1ccc2c3c([nH]c2c1)CCN(c1ccn2nc(N4CCOCC4)nc2c1)C3 [Example 70] | 25 to 50%
< 10 µM |  | CN(C)c1nc2cc(N3CCc4[nH]c5cc(F)ccc5c4C3)ccc2s1 [Example 69] | > 50%
< 10 µM |  | Cn1c2c(c3ccc(F)cc31)CN(c1ccc3nc(N4CCOCC4)sc3c1)CC2 [Example 64] | 10 to 25%
